Data set [1] in a line: Caco-2 cell membrane permeability study (transcellular transport, A-to-B). The class given is in vitro ADME. The following applies: human; Caco-2, apical to basal, 10 μM compound, 2 h, 37 °C, 4% BSA in basal compartment; read-out: Ex. value, cell membrane permeability (Papp, AtoB). The procedure: (§1) KT-474 (Catalog No. E1655), NX-2127 (Catalog No. E1381), MS4078 (Catalog No. S0072), dBET6 (Catalog No. S8762), and dBET57 (Catalog No. S0137) were purchased from Selleck Chemicals (Houston, TX, USA). […] The Caco-2 cell permeability assay using these PROTACs was outsourced to Axcelead Drug Discovery Partners, Inc. (Kanagawa, Japan). Caco-2 cells (American Type Culture Collection, Manassas, VA, USA) were cultured, and a transcellular transport study was performed. The cells were cultured in Transwell 96-well permeable support (pore size 0.4 μm, 0.11 cm^2 surface area) with a polycarbonate membrane (PSHT004S5, Millipore Corporation, Bedford, MA, USA). The cells were preincubated with bovine serum albumin (BSA)-free Hank’s balanced salt solution (HBSS) in the apical compartment (75 μL) and HBSS containing 4% BSA in the basal compartment (250 μL) for 10 min at 37 °C. Subsequently, transcellular transport was initiated by the addition of BSA-free HBSS to apical compartments containing 10 μM compounds. The assay was terminated by separating each assay plate after 2 h. Aliquots (50 μL) from the basolateral compartment were mixed with acetonitrile/methanol. After centrifugation, the compound concentrations in the supernatant were measured using liquid chromatography-tandem mass spectrometry (LC–MS/MS) and a Kinetex C18 column (2.6 μm, 2.1 × 30 mm). The apparent permeabilities (P app, AtoB) of the receivers were determined. Lucifer yellow was added onto the apical compartment at a concentration of 100 μM. The P app of lucifer yellow in the wells where each test compound was evaluated was reported. The P app value of each compound in the membrane permeability test was calculated from a one-point standard curve (0.1 μM) using the following equation. Papp=C×V/T×A×C0 where C (μM) is the concentration of the test compound on the basal side after incubation (measured value); V (mL) is the volume of the basolateral compartment (0.25 mL); T (s) is the permeation experiment time (7200 s); A (cm^2) is the membrane area (0.11 cm^2); and C0 (μM) is the concentration of test compound (measured value).
In general terms: Passage across Caco-2 layers is used to estimate intestinal permeability.

For a further data set, the system named is Caco-2 cells. Described as above. The class given is in vitro ADME. The following applies: Caco-2, A-to-B. The procedure: as §1
The test system of a further data set is Caco-2 cell membranes. Details: method as in PROTAC-DB 3.0. The following applies: Caco-2 A-to-B; as recorded in PROTAC-DB 3.0; ref PROTAC-DB 3.0; cited from earlier work.

Consider `Cc1sc2c(c1C)C(c1ccc(Cl)cc1)=NC(CC(=O)NCCCCCCCCNC(=O)COc1cccc3c1C(=O)N(C1CCC(=O)NC1=O)C3=O)c1nnc(C)n1-2` (stereo not drawn) [dBET6], for which the Papp A→B at 2 h, 10 μM in data set [1] turned out to be 0.99 ×10⁻⁶ cm/s. In the data set with Caco-2 cells, the “cell membrane permeability, result in words” value is listed as “relatively high cell membrane permeability”. In the same order, the values of `Cn1c(=O)n(C2CCC(=O)NC2=O)c2cccc(C#CCOC3CCN(C[C@H]4CC[C@H](n5cc(NC(=O)c6cnn7ccc(N8C[C@H]9C[C@@H]8CO9)nc67)c(C(F)F)n5)CC4)CC3)c21` (stereo partly drawn) [KT-474] are 1.26 ×10⁻⁶ cm/s and “relatively high cell membrane permeability”. As to `Cc1sc2c(c1C)C(c1ccc(Cl)cc1)=NC(CC(=O)NCCNc1cccc3c1C(=O)N(C1CCC(=O)NC1=O)C3=O)c1nnc(C)n1-2` (stereo not drawn) [dBET57], the Papp A→B at 2 h, 10 μM in data set [1] was determined as 0.52 ×10⁻⁶ cm/s. Besides, in the data set with Caco-2 cells, the “cell membrane permeability, result in words” value was “relatively high cell membrane permeability”. `Cc1cc(Nc2ncc(Cl)c(Nc3ccccc3S(=O)(=O)C(C)C)n2)c(OC(C)C)cc1C1CCN(CC(=O)NCCNc2cccc3c2C(=O)N(C2CCC(=O)NC2=O)C3=O)CC1` (stereo not drawn) [MS4078]: the Papp A→B at 2 h, 10 μM in data set [1] was determined as 0.06 ×10⁻⁶ cm/s. With `Cc1sc2c(c1C)C(c1ccc(Cl)cc1)=NC(CC(=O)NCc1cn(CCCCNC(=O)COc3ccc(C4CCC(=O)NC4=O)cc3)nn1)c1nnc(C)n1-2` (stereo not drawn) [Compound 2895], the “experimental value of the cell membrane permeability” value in the data set on Caco-2 cell membranes is on record as 2.14 μcm/s.

In the case of `NC(=O)c1ncc(N2CCCCC2)nc1Nc1ccc(C2CCN(C[C@H]3CCN(c4ccc5c(c4)C(=O)N(C4CCC(=O)NC4=O)C5=O)C3)CC2)cc1` (stereo partly drawn) [NX-2127], in data set [1], the Papp A→B at 2 h, 10 μM was 0.11 ×10⁻⁶ cm/s.

(Values after PMC12933330, “Data-Driven Design of PROTAC Linkers to Improve PROTAC Cell Membrane Permeability” (JACS Au, 2026).)
